Holding throughout (format): in vivo
Data set [1] relates to brain GABA. Nature of the data set: GABA content of brain of mice after four daily i.p. doses. The following applies: brain 24 hours after last dose. As for the experimental part: (§1) A group of 10 male albino CD1 mice from Charles Riner, France, is given an i.p. injection of the test compound in aqueous solution daily for four consecutive days. Half of the animals are killed by decapitation 24 hours after the last dose fo the test compound. The other half of the animals are observed for up to 12 days for toxicity (as indicated by weight loss and deaths). Control animals receive an injection of the vehicle only.
(§2) The brains are removed from the dead mice and are divided into two portions by sagittal section. One half is used for the measurement of GABA-T activity while the other is used for measuring GABA content. The GABA-T activity is measured using known methods as described by M. Jung et al., J. Neurochem., 28, 717 (1977) and 29, 797 (1977), GABA content is measured by perchloric acid or trichloroacetic acid extracts using an amino acid analyzer equiped with a fluoresence detector.

A short description of data set [2]: Toxicity in mice (weight loss and deaths), observed up to 12 days. Particulars: mouse, in vivo, ip, daily dose 1 mg/kg for 4 days, observed up to 12 days, read-out: Mortality (After Treatment). As for the experimental part: as §1
Data set [3] concerns mice. The description is as above. Particulars: i.p. The method, then:
as §1

In data set [4] the test system is GABA-T. The data set can be described thus: GABA-T activity in brain of mice after four daily i.p. doses. The following applies: brain 24 hours after last dose. As for the experimental part:
as §1, §2

Where [5] appears, read: daily dose 2.5 mg/kg for 4 days.

Data on one molecule can be found in patent publication US4418077A, “Fluorinated amino-butyric acid and diaminobutane derivatives” (Merrell Toraude et Compagnie, priority 1980, dated 1983).

The mortality is the share of the test organisms that died.

For the molecule `NC(CF)C(F)C(=O)O` (stereo not drawn) [2,4-difluoro-3-amino-butyric acid, 2,4-DIFLUORO-3-AMINO-BUTYRIC ACID], the “GABA Elevation (%)” value was 150% in data set [1] (daily dose 1 mg/kg for 4 days), 225% in data set [1] (setting [5]) and 250% in data set [1] (daily dose 5 mg/kg for 4 days). Further, in data set [2], the mortality at 288 h stood at 0%. The “Weight Loss %” value is reported as 0% in data set [3] (daily dose 1 mg/kg for 4 days), -5% in data set [3] (setting [5]) and -25% in data set [3] (daily dose 5 mg/kg for 4 days). Moreover, the “Mortality (After Treatment)” value is listed as 2/5 in data set [3] (daily dose 2.5 mg/kg for 4 days, deaths by day 6) and 5/5 in data set [3] (daily dose 5 mg/kg for 4 days, deaths by day 7). The “GABA-T Inhibition (%)” value in data set [4] (daily dose 1 mg/kg for 4 days) was determined as 50%; in data set [4] (setting [5]), 83%; in data set [4] (daily dose 5 mg/kg for 4 days) it was 87%.
